Common to all, as to assay: DTP human tumour cell line panel, 48 h
The test system of experiment [1] is UACC-62 melanoma.
For experiment [2], the system named is OVCAR-3 ovarian.
For experiment [3], the system named is NCI-H522 lung.
Experiment [4] has as its system HOP-62 NSCLC.
Experiment [5] has as its system LOX IMVI melanoma.
The subject of experiment [6] is NCI-H460 lung.
For experiment [7], the system named is SNB-19 CNS.
In experiment [8] the test system is MDA-MB-231 breast.
In experiment [9] the test system is OVCAR-4 ovarian.
Experiment [10] has as its system DU-145 prostate.

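Assay format: 96-well plates, 48-hour exposure. Here, GI50 denotes the concentration required for 50% inhibition of growth. TGI marks complete inhibition of growth.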

Take `COc1cccc(OC(=O)c2ccccc2Nc2ccnc(C(F)(F)F)c2)c1`: the GI50 is 3.09 µM in [1]; 1.65 µM in [2]; 7.61 µM in experiment [3]; 2.84 µM in experiment [4]; 1.07 µM in experiment [5]; 4.1 µM in experiment [6]. The GI50 is 3.52 µM in experiment [7] and 2.12 µM in [8]. The TGI in [1] is 33.9 µM; in experiment [2], 10.5 µM; in experiment [3], more than 100 µM; in [4], 6.73 µM; in experiment [5], 10.4 µM; in experiment [6], more than 100 µM. Besides, the values for the TGI in [7] and in experiment [8] were more than 100 µM and 16.9 µM, respectively.
`CC(=O)[O][Pb]([O]C(C)=O)([c]1ccccc1)[c]1ccccc1`: the GI50 in [1] was 3.88 µM; in experiment [2], 2.4 µM; in experiment [3], 0.657 µM; in experiment [4] it was 25.2 µM; in [5], 1.19 µM; in [6] it was 7.51 µM. The values for the GI50 in experiment [7] and in experiment [9] were 23.8 µM and more than 100 µM, respectively. Also, the TGI in [1] was 31.1 µM; in experiment [2] it was more than 100 µM; in experiment [3], 7.46 µM; in [4], 52 µM; in experiment [5] it was 2.67 µM; in experiment [6] it was more than 100 µM. In addition, the concentration for total growth inhibition (TGI) is 46.6 µM in [7] and more than 100 µM in experiment [9].
Take `CCN=C1C=CC(=C(c2ccc(N(C)C)cc2)c2ccc(N(C)C)cc2)c2ccccc21`: the GI50 in [2] is 0.0301 µM; in experiment [4], 0.0825 µM; in experiment [5] it was 0.0528 µM; in [6], 0.0657 µM; in [7] it was 0.217 µM; in experiment [8], 0.171 µM. Also, the GI50 was 0.0829 µM in experiment [10] and 0.114 µM in [9]. Also, the TGI in experiment [2] is 0.121 µM; in [4], 0.578 µM; in experiment [5], 1.01 µM; in experiment [6], 0.572 µM; in [7], 4.21 µM; in experiment [8] it was 1.3 µM. The TGI is 0.357 µM in experiment [10] and 1.6 µM in [9].
As to `CN(C)c1ccc2c(NCCCCCCNc3ccnc4cc(N(C)C)ccc34)ccnc2c1`, the TGI was more than 100 µM in experiment [1]; 27.7 µM in experiment [2]; 25.2 µM in experiment [3]; 67.9 µM in [4]; 57 µM in experiment [6]; 16.4 µM in experiment [7]. This compound also showed a TGI in experiment [9] of 28.2 µM.
Regarding `CC12CCC(=O)C(O1)C1C(=O)c3cc4ccccc4cc3C(=O)C12` (stereo not given), the GI50 in experiment [3] is 21.9 µM; in experiment [4], 45 µM; in experiment [6], 14 µM; in experiment [7], 38.1 µM; in experiment [8] it was 14.9 µM; in experiment [9] it was 12.2 µM. Moreover, the TGI in experiment [3] was 52.3 µM; in experiment [4], more than 100 µM; in experiment [6], 51 µM; in experiment [7] it was more than 100 µM; in [8], 35.6 µM; in experiment [9] it was 41.2 µM.
On to `Cc1ccc(C(=O)Nc2ccc(S(=O)(=O)O)c3cc(S(=O)(=O)O)cc(S(=O)(=O)O)c23)cc1NC(=O)c1cccc(N)c1`, for which the TGI in experiment [1], in experiment [2], in experiment [3], in experiment [4], in experiment [6] and in [7] was more than 100 µM throughout. In addition, the TGI in experiment [8] and in [9] was more than 100 µM each time.
Regarding `C=C1C(=O)O[C@H]2C[C@@H](C)[C@@H]3CC(=O)OC[C@@]3(C)CC12` (stereo not given in full), the TGI was 51.9 µM in experiment [1]; 74.6 µM in [2]; 12 µM in [3]; more than 100 µM in experiment [4]; 90.5 µM in [5]; 51 µM in experiment [6]. The TGI in experiment [7] was more than 100 µM; in experiment [9] it was 54.4 µM.
For the compound `CC(=O)/C(=C\c1ccco1)C(=O)Nc1ccccc1`, the TGI in experiment [1], in [2], in experiment [3], in experiment [4], in experiment [5] and in experiment [6] was more than 100 µM throughout. For the same compound, the TGI in experiment [7] and in experiment [9] was more than 100 µM in each case.
Consider `COC12C=CC(CC1)c1c(O)ccc(O)c12` (stereo not given), for which the TGI in experiment [1] is more than 100 µM; in experiment [2], 44.2 µM; in [3] it was 35.1 µM; in experiment [4], more than 100 µM; in experiment [6], more than 100 µM; in experiment [7], more than 100 µM. This compound also had a TGI in experiment [9] of 46.6 µM.
Take `CC1CC2C(=O)NC(=O)C2c2[nH]c3ccccc3c21` (stereo not given): the TGI in experiment [2], in experiment [3], in [4], in [5], in experiment [6] and in [9] was more than 100 µM each time.
For `CC(C)(C(=O)NN)c1ccccc1`, the TGI in [1], in experiment [2], in experiment [3], in [4], in experiment [5] and in experiment [6] was more than 100 µM each time. Further, the TGI in [7], in experiment [8] and in [10] was more than 100 µM throughout.
In the case of `O=C1C/C(=C/c2ccc(/C=C3/CC(=O)N(c4cccc(Br)c4)C3=O)cc2)C(=O)N1c1cccc(Br)c1`, the TGI in experiment [1], in [2], in experiment [3], in experiment [4], in experiment [5] and in experiment [6] was more than 100 µM throughout. Further, the TGI in experiment [7] and in experiment [9] was more than 100 µM throughout.
Turning to `COC(=O)[C@@H]1CSC(=S)N1C(=O)C[C@H]1CC=CC[C@H]1CC(=O)Sc1ccccc1`, the TGI in experiment [1] is 38.3 µM; in experiment [2] it was 36.2 µM; in experiment [3], 18.2 µM; in experiment [4] it was 38 µM; in experiment [5] it was 33.1 µM; in experiment [6], 33.5 µM. The TGI in [7] came out at 34.8 µM.
Regarding `O=C(CCn1[nH]c(=O)c(Cl)c(Cl)c1=O)NOCCCc1ccccc1`, the TGI in experiment [1], in experiment [2], in experiment [4], in experiment [5], in experiment [6] and in experiment [7] was more than 100 µM in each case. Further, the TGI in [9] was more than 100 µM.

Broadly, the GI50 is the concentration giving 50% growth inhibition. As usually defined, the TGI is the concentration at which net growth stops. A high value points to lower sensitivity of the cells.
